Values of other authors in patent US20030124524A1, “Screening assays for identifying modulators of the inflammatory or immune response” (priority 2000, published 2003).
Where two headings read alike, the source gives them in different places.

Substance: rhIL-1ra: recombinant human IL-1 receptor antagonist protein, useful for treatment of rheumatoid arthritis in a genotype-dependent manner
- response to treatment of rheumatoid arthritis (patients carrying at least one IL-1A (+4845) allele 2 (and alleles in linkage disequilibrium)): substantial and significant response
- response to treatment of rheumatoid arthritis (patients homozygous for IL-1A (+4845) allele 1): response no better than placebo
